Test results taken from ChEMBL document CHEMBL1275550, “In vitro activity of doripenem, a carbapenem for the treatment of challenging infections caused by gram-negative bacteria, against recent clinical isolates from the United States” (2008).

Legend:
Type in all cases: functional
Citrobacter [1] = experiment: Antimicrobial activity against Citrobacter with derepressed AmpC beta-lactamsae assessed as resistant isolate by broth microdilution method
Pseudomonas aeruginosa [2] = experiment: Antimicrobial activity against imipenem susceptible Pseudomonas aeruginosa assessed as resistant isolate by broth microdilution method
Enterobacter cloacae = experiment: Antimicrobial activity against Enterobacter cloacae with nonderepressed AmpC beta-lactamsae assessed as resistant isolate by broth microdilution method
Pseudomonas aeruginosa [3] = experiment: Antimicrobial activity against Pseudomonas aeruginosa isolated from ICU patient assessed as intermediate isolate by broth microdilution method
Pseudomonas aeruginosa [4] = experiment: Antimicrobial activity against Pseudomonas aeruginosa isolated from non-ICU patient assessed as intermediate isolate by broth microdilution method in presence of Tazobactam
Pseudomonas aeruginosa [5] = experiment: Antimicrobial activity against imipenem susceptible Pseudomonas aeruginosa assessed as intermediate isolate by broth microdilution method in presence of Tazobactam
Pseudomonas aeruginosa [6] = experiment: Antimicrobial activity against Pseudomonas aeruginosa isolated from non-ICU patient assessed as susceptible isolate by broth microdilution method in presence of Tazobactam
Proteus mirabilis = experiment: Antimicrobial activity against Non-ESBL Proteus mirabilis by broth microdilution method in presence of Tazobactam
Klebsiella pneumoniae = experiment: Antimicrobial activity against Non-ESBL Klebsiella pneumoniae assessed as resistant isolate by broth microdilution method in presence of Tazobactam
Citrobacter [7] = experiment: Antimicrobial activity against Citrobacter with nonderepressed AmpC beta-lactamsae by broth microdilution method in presence of Tazobactam
Escherichia coli = experiment: Antimicrobial activity against ESBL producing Escherichia coli assessed as intermediate isolate by broth microdilution method in presence of Tazobactam
Serratia marcescens = experiment: Antimicrobial activity against ceftazidime susceptible Serratia marcescens by broth microdilution method in presence of Tazobactam
Pseudomonas aeruginosa [8] = experiment: Antimicrobial activity against Pseudomonas aeruginosa isolated from ICU patient assessed as resistant isolate by broth microdilution method in presence of Tazobactam
Pseudomonas aeruginosa [9] = experiment: Antimicrobial activity against imipenem non-susceptible Pseudomonas aeruginosa assessed as susceptible isolate by broth microdilution method in presence of Tazobactam

CC(C)(O/N=C(\C(=O)N[C@@H]1C(=O)N2C(C(=O)[O-])=C(C[n+]3ccccc3)CS[C@H]12)c1csc(N)n1)C(=O)O [CEFTAZIDIME]
Activity (Citrobacter [1]): 100% | Activity (Pseudomonas aeruginosa [2]): 6.9% | Activity (Enterobacter cloacae): 5.7%

CCN1CCN(C(=O)N[C@@H](C(=O)N[C@@H]2C(=O)N3[C@@H]2SC(C)(C)[C@@H]3C(=O)O)c2ccccc2)C(=O)C1=O [PIPERACILLIN]
MIC50 (Pseudomonas aeruginosa [3]): 16 mg/L | MIC90 (Pseudomonas aeruginosa [3]): > 128 mg/L | Activity (Pseudomonas aeruginosa [4]): 0% | Activity (Pseudomonas aeruginosa [5]): 0% | Activity (Pseudomonas aeruginosa [6]): 87% | MIC50 (Proteus mirabilis): 0.5 mg/L | MIC90 (Proteus mirabilis): 2 mg/L | Activity (Klebsiella pneumoniae): 1.7% | MIC50 (Citrobacter [7]): 4 mg/L | MIC90 (Citrobacter [7]): 16 mg/L | Activity (Escherichia coli): 16.7% | MIC50 (Serratia marcescens): 4 mg/L | MIC90 (Serratia marcescens): 16 mg/L | Activity (Pseudomonas aeruginosa [8]): 21.6% | Activity (Pseudomonas aeruginosa [9]): 72.9%
